Measured values published in BindingDB's records for patent US20250243194 (Adorx Therapeutics, 2025).

Experiments:
Assay in all cases: Adenosine Receptor Time-Resolved Fluorescence Resonance Energy Transfer (TRFRET) Binding Assay
[1] = molecular target: T1, Adenosine receptor A1 (Homo sapiens, UniProt P30542)
T1 sequence (P30542 whole entry): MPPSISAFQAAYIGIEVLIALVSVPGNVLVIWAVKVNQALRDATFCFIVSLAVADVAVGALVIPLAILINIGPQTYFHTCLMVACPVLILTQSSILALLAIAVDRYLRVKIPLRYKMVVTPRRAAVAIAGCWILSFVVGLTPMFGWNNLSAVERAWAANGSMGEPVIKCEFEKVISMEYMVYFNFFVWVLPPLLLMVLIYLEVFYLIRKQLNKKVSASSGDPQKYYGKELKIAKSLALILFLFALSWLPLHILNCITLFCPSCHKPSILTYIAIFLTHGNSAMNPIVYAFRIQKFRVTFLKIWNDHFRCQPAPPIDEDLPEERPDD
Method: (§1) All FRET binding experiments were conducted at room temperature in white 384-well plates, in assay binding buffer containing 1× LabMed (Cisbio, France), 100 μg/mL saponin, 1% DMSO and 0.02% pluronic acid. Binding of the fluorescently labelled Adenosine receptor antagonist XAC (CA200645, FRET acceptor) to terbium-labelled A1, A2a, A2b and A3 adenosine receptors (FRET donors) was detected by time-resolved FRET due to the close proximity of the donor and acceptor in a binding event. To investigate the ability of unlabelled test compounds to bind to Adenosine A1, A2a, A2b and A3 receptors, dose response curves were constructed that determined the ability of a range of concentrations to inhibit the binding of 30 nM CA200645 to the A2b receptor and 100 nM CA200645 to the A1, A2a, and A3 receptor.Serial dilution (1:3 dilutions) of test compounds in neat DMSO and transfer of a 400 nL sample of test compound into the assay plate was carried out using the Mosquito (TTP Labtech, UK). The compound samples were incubated for 2 hours at room temperature with a fixed concentration of CA200645 defined for each receptor (see above) and CHO cell membranes containing the human Adenosine A1 (0.5 μg/well), A2a (0.3 μg/well), A2b (1 μg/well) or A3 (1 μg/well) receptor in 40 μL of assay buffer. Total and non-specific binding of CA200645 was determined in the absence and presence of 10 μM XAC, respectively. Following 2 hours incubation, the level of CA200645 binding was detected on a Pherastar FSX (BMG Labtech, Germany) using standard TR-FRET settings.

[2] = molecular target: Adenosine receptor A2a (Homo sapiens, UniProt P29274)
Adenosine receptor A2a, sequence (P29274 whole entry): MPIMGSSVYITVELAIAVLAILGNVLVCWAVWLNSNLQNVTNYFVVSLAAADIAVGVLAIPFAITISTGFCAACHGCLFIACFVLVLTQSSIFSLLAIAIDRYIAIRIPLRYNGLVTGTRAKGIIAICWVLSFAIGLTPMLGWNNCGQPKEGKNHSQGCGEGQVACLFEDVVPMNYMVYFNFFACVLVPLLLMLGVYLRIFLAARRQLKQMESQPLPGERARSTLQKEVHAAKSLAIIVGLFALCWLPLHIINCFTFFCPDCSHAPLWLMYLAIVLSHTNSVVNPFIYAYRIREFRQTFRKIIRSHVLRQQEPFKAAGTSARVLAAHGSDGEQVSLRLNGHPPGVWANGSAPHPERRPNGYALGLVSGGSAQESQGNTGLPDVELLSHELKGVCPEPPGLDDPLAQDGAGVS
Method: as §1

[3] = molecular target: T2, Adenosine receptor A2b (Homo sapiens, UniProt P29275)
T2 sequence (P29275 whole entry): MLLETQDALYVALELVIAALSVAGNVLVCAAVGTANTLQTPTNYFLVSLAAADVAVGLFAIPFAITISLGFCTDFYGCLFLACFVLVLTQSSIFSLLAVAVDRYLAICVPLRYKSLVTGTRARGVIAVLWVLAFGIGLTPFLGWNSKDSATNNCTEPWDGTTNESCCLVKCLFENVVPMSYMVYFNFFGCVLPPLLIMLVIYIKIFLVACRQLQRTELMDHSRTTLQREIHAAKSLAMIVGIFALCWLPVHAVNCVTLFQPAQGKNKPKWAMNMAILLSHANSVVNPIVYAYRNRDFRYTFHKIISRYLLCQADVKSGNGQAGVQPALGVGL
Method: as §1

[4] = molecular target: T3, Adenosine receptor A3 (Homo sapiens, UniProt P0DMS8)
T3 sequence (P0DMS8 whole entry): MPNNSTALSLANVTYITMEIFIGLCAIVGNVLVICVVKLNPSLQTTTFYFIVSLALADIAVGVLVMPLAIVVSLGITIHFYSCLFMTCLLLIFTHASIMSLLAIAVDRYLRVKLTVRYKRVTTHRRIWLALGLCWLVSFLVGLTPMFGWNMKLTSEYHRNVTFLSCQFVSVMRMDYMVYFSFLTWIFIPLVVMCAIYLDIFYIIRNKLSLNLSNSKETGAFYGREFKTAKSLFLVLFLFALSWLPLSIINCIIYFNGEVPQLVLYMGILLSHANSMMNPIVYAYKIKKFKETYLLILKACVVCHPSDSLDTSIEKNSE
Method: as §1

| Ki [1] | Ki [2] | Ki [3] | Ki [4] | SMILES |
| --- | --- | --- | --- | --- |
| 0.2 nM | 0.17 nM | 0.8 nM | – | COc1ncnc2ccc(-c3sc(NC(=O)N4CC5(COC5)C4)nc3-c3cccc(C#N)c3)cc12 [US20250243194, Example 12] |
| 20 nM | 0.42 nM | 3 nM | – | Cc1ncnc2ccc(-c3sc(NC(=O)N4CCN(C)CC4)nc3-c3cccc(C#N)c3)cc12 [US20250243194, Example 7.22] |
| 9 nM | 0.3 nM | 1.6 nM | – | Cc1ncnc2ccc(-c3sc(NC(=O)N4CCNCC4)nc3-c3cccc(C#N)c3)cc12 [US20250243194, Example 7.21] |
| 0.4 nM | 0.04 nM | 0.5 nM | – | Cc1ccnc2ccc(-c3sc(NC(=O)N4CC5(COC5)C4)nc3-c3cccc(C#N)c3)cc12 [US20250243194, Example 11] |
| 57 nM | 0.2 nM | 1.4 nM | – | Cc1ncnc2ccc(-c3sc(NC(=O)N4C[C@@H]5OCCN(C)[C@@H]5C4)nc3-c3cccc(C#N)c3)cc12 [US20250243194, Example 7.20] |
| 62 nM | 0.55 nM | 2.5 nM | – | Cc1ncnc2ccc(-c3sc(NC(=O)N4CCC(N(C)C)CC4)nc3-c3cccc(C#N)c3)cc12 [US20250243194, Example 7.6] |
| 122 nM | 5.17 nM | 9.8 nM | 2130 nM | Cn1cc(-c2sc(NC(=O)N3CC4(COC4)C3)nc2-c2cccc(C#N)c2)c2cccnc21 [US20250243194, Example 16] |
